# Experimental data from patent US8536226B2, “Methods for the treatment of dermatological disorders” (Janssen Pharmaceutica, NV, priority 2008, dated 2013).
# “And” between values parts separate entries of the source, which are not always exact repeats. Equal entries are not always repeated. Where two headings read alike, the source gives them in different places.
# Tests used:
# [1] = biological target: T1, Melanocortin-5 (MC-5) receptor (Homo sapiens, UniProt P33032); experiment: MC-5 receptor binding assay, MDS-PANLABS (human recombinant HEK-293 cells, [125]NDP-α-MSH); parameters: host or cells: HEK-293 cells
# T1 sequence (P33032 whole entry): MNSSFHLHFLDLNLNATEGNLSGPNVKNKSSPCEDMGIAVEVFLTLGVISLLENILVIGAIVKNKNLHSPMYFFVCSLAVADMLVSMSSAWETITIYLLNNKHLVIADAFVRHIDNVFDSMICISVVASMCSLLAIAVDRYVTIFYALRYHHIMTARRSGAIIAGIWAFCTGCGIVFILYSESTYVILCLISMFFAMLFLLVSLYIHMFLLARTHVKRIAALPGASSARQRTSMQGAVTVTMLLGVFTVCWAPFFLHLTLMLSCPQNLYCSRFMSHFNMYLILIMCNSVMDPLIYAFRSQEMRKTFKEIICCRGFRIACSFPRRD
# Description: (§1) Binding to the MC-5 receptor was measured in two assays, performed by CEREP and MDS-PANLABS.
# The assay run by MDS-PANLABS (Catalog Ref #251400) used human recombinant HEK-293 cells, ^[125]NDP-α-MSH as the ligand (0.035 nM), various concentrations of the compound of formula (I), incubating at 37° C. for 60 min, and detecting binding via scintillation counting. Specific ligand binding to the receptors was defined as the difference between the total binding and the nonspecific binding determined in the presence of an excess (3 μM) of unlabelled NDP-α-MSH. IC50 values were determined by a non-linear, least squares regression analysis using Data Analysis Toolbox. Inhibition constants (Ki) were calculated using the equation of Cheng and Prusoff (Biochem. Pharmacol. 22:3099, 1973) using the observed IC50 of the tested compound, the concentration of radioligand employed in the assay, and the historical values for the Kd of the ligand (obtained experimentally at MDS Pharma Services).
# The compound of formula (I) was tested for binding to the MC-5 receptor in both the CEREP and MDS-PANLABS assays with results as listed in Table 3 below.
# [2] = biological target: T1, Melanocortin-5 (MC-5) receptor; experiment: MC-5 receptor binding assay, CEREP (human recombinant CHO cells, [125]NDP-α-MSH)
# Description: as §1
# The assay run by CEREP (Catalog Ref. #889-5h) used human recombinant CHO cells, ^[125]NDP-α-MSH as the ligand (0.05 nM concentration), NDP-α-MSH as the non-specific (1 μM), incubating at 37° C. for 60 min and detecting binding via scintillation counting. The specific ligand binding to the receptors was defined as the difference between the total binding and the nonspecific binding determined in the presence of an excess of unlabelled ligand. The IC50 values (the concentration causing a half-maximal inhibition of control specific binding) and Hill coefficients were determined by non-linear regression analysis of the competition curves generated with mean replicate values using Hill equation curve fitting (Y=D+[(A−D)/(1+(C/C50)^nH)], where Y=specific binding, D=minimum specific binding, A=maximum specific binding, C=compound concentration, C50=IC50, and nH=slope factor). This analysis was performed using software developed at CEREP (Hill software) and validated by comparison with data generated by the commercial software SigmaPlot® 4.0 for Windows® (© 1997 by SPSS Inc.). The inhibition constants (Ki) were calculated using the Cheng Prusoff equation (Ki=IC50/(1+(L/KD)), where L=concentration of radioligand in the assay, and KD=affinity of the radioligand for the receptor). […]
# [3] = test system: human sebocytes; experiment: cells; type: cell-based; conditions: read-out: % Inhibition (Nile Red Fluorescence)
# [4] = test system: human sebocytes; experiment: cells; type: cell-based
# [5] = test system: isolated human adipocytes; conditions: concentrations as high as 1 μM; cited from earlier work
# [6] = test system: rabbit adipocytes; conditions: read-out: EC50, lipolytic activity; cited from earlier work
# [7] = test system: isolated non-human primate adipocytes; conditions: concentrations as high as 1 μM; cited from earlier work
# [8] = test system: rat adipocytes; conditions: read-out: EC50, lipolytic activity; cited from earlier work
molecule,measurement,setting,value
"COc1ccccc1N/C(=N\C(=S)Nc1ccccc1)c1ccccc1OC [Compound (I), 1-[(2-methoxy-phenyl)-(2-methoxy-phenylamino)-methylene]-3-phenyl-thiourea]",IC50,[1]; MDS-PANLABS MEAN ± SD,2350 ± 1670 nM
same,Ki,[1]; MDS-PANLABS MEAN ± SD,2200 ± 1560 nM
same,Ki,"[1]; MDS-PANLABS assay, Cheng Prusoff, single runs",1100 nM and 3310 nM
same,IC50,"[1]; MDS-PANLABS assay, HEK-293 cells, 0.035 nM radioligand, single runs",1170 nM and 3530 nM
same,IC50,"[2]; CHO cells, 0.05 nM radioligand",57000 nM
same,Ki,[2]; Cheng Prusoff,53000 nM
same,inhibition at 0.4 µM,[3],24%
same,inhibition at 0.6 µM,[3],25%
same,inhibition at 0.8 µM,[3],39%
same,inhibition at 1 µM,[3],45%
same,inhibition at 1.2 µM,[3],43%
same,inhibition at 0.8 µM,"[4]; read-out: % Inhibition of Sebaceous Lipid Synthesis, cholesterol esters, Study 1, @ 0.8 μM",30%
same,inhibition at 1.2 µM,"[4]; read-out: % Inhibition of Sebaceous Lipid Synthesis, cholesterol esters, Study 1, @ 1.2 μM",35%
same,inhibition at 1.6 µM,"[4]; read-out: % Inhibition of Sebaceous Lipid Synthesis, cholesterol esters, Study 1, @ 1.6 μM",45%
same,inhibition at 3.2 µM,"[4]; read-out: % Inhibition of Sebaceous Lipid Synthesis, cholesterol esters, Study 1, @ 3.2 μM",60%
same,inhibition at 0.4 µM,"[4]; read-out: % Inhibition of Sebaceous Lipid Synthesis, cholesterol esters, Study 2, @ 0.4 μM",44%
same,inhibition at 0.8 µM,"[4]; read-out: % Inhibition of Sebaceous Lipid Synthesis, cholesterol esters, Study 2, @ 0.8 μM",64%
same,inhibition at 1.2 µM,"[4]; read-out: % Inhibition of Sebaceous Lipid Synthesis, cholesterol esters, Study 2, @ 1.2 μM",72%
same,inhibition at 1.6 µM,"[4]; read-out: % Inhibition of Sebaceous Lipid Synthesis, cholesterol esters, Study 2, @ 1.6 μM",74%
same,inhibition at 3.2 µM,"[4]; read-out: % Inhibition of Sebaceous Lipid Synthesis, cholesterol esters, Study 2, @ 3.2 μM",86%
same,inhibition at 0.8 µM,"[4]; read-out: % Inhibition of Sebaceous Lipid Synthesis, squalene, Study 1, @ 0.8 μM",50%
same,inhibition at 1.2 µM,"[4]; read-out: % Inhibition of Sebaceous Lipid Synthesis, squalene, Study 1, @ 1.2 μM",55%
same,inhibition at 1.6 µM,"[4]; read-out: % Inhibition of Sebaceous Lipid Synthesis, squalene, Study 1, @ 1.6 μM",62%
same,inhibition at 3.2 µM,"[4]; read-out: % Inhibition of Sebaceous Lipid Synthesis, squalene, Study 1, @ 3.2 μM",76%
same,inhibition at 0.4 µM,"[4]; read-out: % Inhibition of Sebaceous Lipid Synthesis, squalene, Study 2, @ 0.4 μM",64%
same,inhibition at 0.8 µM,"[4]; read-out: % Inhibition of Sebaceous Lipid Synthesis, squalene, Study 2, @ 0.8 μM",88%
same,inhibition at 1.2 µM,"[4]; read-out: % Inhibition of Sebaceous Lipid Synthesis, squalene, Study 2, @ 1.2 μM",92%
same,inhibition at 1.6 µM,"[4]; read-out: % Inhibition of Sebaceous Lipid Synthesis, squalene, Study 2, @ 1.6 μM",94%
same,inhibition at 3.2 µM,"[4]; read-out: % Inhibition of Sebaceous Lipid Synthesis, squalene, Study 2, @ 3.2 μM",96%
same,inhibition at 0.8 µM,"[4]; read-out: % Inhibition of Sebaceous Lipid Synthesis, triglycerides, Study 1, @ 0.8 μM",0%
same,inhibition at 1.2 µM,"[4]; read-out: % Inhibition of Sebaceous Lipid Synthesis, triglycerides, Study 1, @ 1.2 μM",10%
same,inhibition at 1.6 µM,"[4]; read-out: % Inhibition of Sebaceous Lipid Synthesis, triglycerides, Study 1, @ 1.6 μM",8%
same,inhibition at 3.2 µM,"[4]; read-out: % Inhibition of Sebaceous Lipid Synthesis, triglycerides, Study 1, @ 3.2 μM",2%
same,inhibition at 0.4 µM,"[4]; read-out: % Inhibition of Sebaceous Lipid Synthesis, triglycerides, Study 2, @ 0.4 μM",22%
same,inhibition at 0.8 µM,"[4]; read-out: % Inhibition of Sebaceous Lipid Synthesis, triglycerides, Study 2, @ 0.8 μM",20%
same,inhibition at 1.2 µM,"[4]; read-out: % Inhibition of Sebaceous Lipid Synthesis, triglycerides, Study 2, @ 1.2 μM",16%
same,inhibition at 1.6 µM,"[4]; read-out: % Inhibition of Sebaceous Lipid Synthesis, triglycerides, Study 2, @ 1.6 μM",14%
same,inhibition at 3.2 µM,"[4]; read-out: % Inhibition of Sebaceous Lipid Synthesis, triglycerides, Study 2, @ 3.2 μM",6%
"ACTH: melanocortin neuropeptide arising from pro-opiomelanocortin (POMC) (SYSMEHFRWGKPVGKKRRPVKVYPNGAEDESAEAFPLEF; Corticotropin; UniProt P01189 138-176, looked up)",effect on lipolysis,[5],very little effect
same,EC50,[6],16.4 nM
same,effect on lipolysis,[7],very little effect
same,EC50,[8],1.34 nM
αMSH,EC50,[6],3.7 nM
